# Experimental data: US20120207733A1 (priority 2011, published 2012)
# Test system: DU-145 cells
# Format: cell-based, Human
compound,measurement,value
C=C1[C@@H](C)[C@H]2[C@H](Cc3ccccc3)NC(=O)[C@]23[C@H](OC(C)=O)/C=C/[C@@](C)(O)C(=O)[C@@H](C)C/C=C/[C@H]3[C@@H]1O [Cytochalasin-D],Effect on cell migration,did not migrate
same,"Relative Wound Density at 24 Hours, Mean",3.3 ± 0.2
same,"Relative Wound Density at 24 Hours, Percent Relative to Media",4%
